In ChEMBL document CHEMBL1201862, “PubChem BioAssay data set” (2004):
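Step 1: Grow cells in 96-well plates. Step 2: Expose to compound for 48 hours at 5 concentrations. Step 3: Interpolate endpoints linearly; if unreached, use highest concentration. At the GI50, growth is halved.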 Activity calls are given as the source filed them. No stated cut-off is given here; in the data, active = GI50 up to about 1.1 µM and inactive = higher.

How the values were obtained:
Assay in all cases: NCI-60 cell line screen, 48 h
[1] = system: 786-0
[2] = system: A549
[3] = system: ACHN
[4] = system: BT-549
[5] = system: CAKI-1
[6] = system: EKVX
[7] = system: HCC 2998
[8] = system: HCT-116
[9] = system: HCT-15
[10] = system: HL-60
[11] = system: HOP-62
[12] = system: HOP-92
[13] = system: Hs-578T
[14] = system: IGROV-1
[15] = system: K562
[16] = system: KM12
[17] = system: LOX IMVI
[18] = system: MDA-MB-231
[19] = system: MDA-MB-435
[20] = system: Malme-3M
[21] = system: NCI-H23
[22] = system: NCI-H460
[23] = system: NCI-H522
[24] = system: NCI/ADR-RES
[25] = system: OVCAR-3
[26] = system: OVCAR-5
[27] = system: OVCAR-8
[28] = system: PC-3
[29] = system: RPMI-8226
[30] = system: SF-268
[31] = system: SF-295
[32] = system: SF-539
[33] = system: SK-MEL-28
[34] = system: SK-MEL-2
[35] = system: SK-MEL-5
[36] = system: SK-OV-3
[37] = system: SN12C
[38] = system: SNB-19
[39] = system: SNB-75
[40] = system: T47D
[41] = system: TK-10
[42] = system: U-251
[43] = system: UACC-257
[44] = system: UACC-62
[45] = system: UO-31
[46] = system: A498
[47] = system: CCRF-CEM
[48] = system: COLO 205
[49] = system: DU-145
[50] = system: HT-29
[51] = system: M14
[52] = system: MCF7
[53] = system: MOLT-4
[54] = system: NCI-H226
[55] = system: SW-620

Measured: GI50

Nc1nc(N)c2cc(S(=O)(=O)c3ccc4ccccc4c3)ccc2n1
3.93 µM: [9]
inactive: [1] 3.66 µM | [3] 2.74 µM | [4] 11.7 µM | [5] 4.83 µM | [6] 8.13 µM | [7] > 100 µM | [10] > 100 µM | [11] 4.63 µM | [12] 5.86 µM | [13] 8.39 µM | [14] 1.5 µM | [16] 9.95 µM | [18] 1.62 µM | [19] 3.3 µM | [20] 14.4 µM | [21] 4.27 µM | [23] 3.9 µM | [24] 70.5 µM | [25] > 100 µM | [26] > 100 µM | [27] 1.34 µM | [28] 1.58 µM | [29] > 100 µM | [30] 5.22 µM | [31] 1.55 µM | [32] 3.33 µM | [33] > 100 µM | [34] 43.4 µM | [35] 11.9 µM | [36] > 100 µM | [37] 7.69 µM | [38] 6.03 µM | [39] 2.86 µM | [40] 1.46 µM | [41] > 100 µM | [42] 3.24 µM | [44] 2.57 µM | [45] 2.04 µM
active: [2] 0.718 µM | [8] 0.495 µM | [15] 0.541 µM | [17] 0.766 µM | [22] 0.573 µM | [43] 0.142 µM

CCc1cccc2c3c([nH]c12)-c1ccccc1NC(=O)C3
84.1 µM: [9]
inactive: [1] > 100 µM | [46] 19.5 µM | [2] > 100 µM | [4] > 100 µM | [5] 43.6 µM | [47] > 100 µM | [48] > 100 µM | [49] > 100 µM | [6] > 100 µM | [10] 92.3 µM | [11] > 100 µM | [12] > 100 µM | [50] > 100 µM | [13] 30.7 µM | [14] > 100 µM | [15] 19.4 µM | [16] 7.06 µM | [17] 72.9 µM | [51] > 100 µM | [52] 18.3 µM | [18] 5.66 µM | [19] 35.3 µM | [53] 8.89 µM | [54] 14.1 µM | [21] > 100 µM | [22] > 100 µM | [24] > 100 µM | [25] > 100 µM | [26] > 100 µM | [27] > 100 µM | [29] 67.5 µM | [30] 48.2 µM | [31] > 100 µM | [33] > 100 µM | [34] > 100 µM | [35] > 100 µM | [36] > 100 µM | [37] 95.5 µM | [38] > 100 µM | [39] 13.2 µM | [55] > 100 µM | [40] 3.66 µM | [41] > 100 µM | [42] > 100 µM | [43] > 100 µM | [44] 65.9 µM | [45] > 100 µM
